Results from patent US5128376A, “Method for percutaneously administering physiologically active agents using an adjuvant a solvent and a diol moderator” (priority 1990, dated 1992).
Where a name gives a salt, the structure may show the parent alone. Read-outs that look alike come from different tables or passages of the source. One block for each molecule: values may come before it.

What was measured:
[1] = in vivo; details: rhesus monkey, topical or ocular
Procedure: Male rhesus monkeys weighting 10-14 Kg can be used as the subject. An appropriate area of the monkey's chest is shaved 24 hours before drug application.
Drug formulations comprising the PAEC are applied to a certain area of the chest. The monkey is restrained in a chair to prevent it from touching its chest.
Blood samples are taken at appropriate intervals after the application. The heparinized blood is centrifuged, and the plasma removed and stored at -20° C. until analyzed.
This example show in vivo plasma metoclopramide.HCl levels with a topical gel formulation.
200 mg of metoclopramide.HCl was dissolved in 4 ml of 10% C12 OH in a 1:1 volume mixture of MP/1,2-propanediol. To this solution was added 160 mg of Klucel (hydroxypropylcellulose type HF; Hercules Inc.) and the same stirred thoroughly to obtain a uniform gel. 1.0 ml of the gel was applied to 49 cm^2 of the chest area of the rhesus monkey; the applied area was left open to the air during the experiment.
In Examples 7 and 10, the in vivo Rhesus monkey test earlier described was followed except for modifying as described in Example 7.
49 cm^2 of a polyester non-woven cloth (230 mg) impregnated with 1 ml of 25% C12 OH in a 2:1 volume mixture of MP/1,2-propanediol containing 200 mg of Indomethacin was applied to the upper back of a rhesus monkey; the applied area was occluded with Saran® film.
The plasma level of Indomethacine was analyzed by conventional HPLC.
The in vivo procedure of Example 7 was duplicated except for using propranolol as the active agent in place of the NSAID used, e.g., Indomethacin.

[2] = In vitro skin penetration study with rat skin diffusion cell technique (active agent flux, 8 hours); details: 25 mg in 1 ml
From the text: Rat full thickness skins were used in the diffusion cell method of Michaels, AlChE Journal, 21 [5], 985-996, 1975. The rat skin was mounted in the diffusion cell in a vertical position between the upstream and the downstream compartments; the exposed area of the skin approximated 4.15 cm^2.
The skin was excised from the shaved abdominal site of male albino rats weighing 150~300 g, and washed with normal saline solution after the subcutaneous fat was carefully removed with scissors.
The active agent/PAEC solution of known concentration was added to the upper compartment of the cell, which was exposed to the epithelial side of the skin and a normal saline solution was placed in the lower compartment.
The penetration rate was studied in a thermostated bath at 30° C. […]
The flux of the active agent is given in the terms of μg/cm^2 /8 hours. 25 Volume percent component A with respect to component A and component B volume with or without diols and/or triols was used in the composition along with 2.5 weight percent of the active agent. For purposes of comparison, in one instance the result for an adjuvant alone with a diol and/or triol is given.
1,2-propanediol was used as a diol moderator. […]
In the following Examples 6, 8, 9, 11 and 12, in vitro transdermal penetration was again analyzed followed the method of Michaels, AIChE Journal, 21, [5], pp. 985-996 (1975), according to the earlier described procedure. The sample volume was 1 ml unless otherwise indicated and flux of the active agent is given in μg/cm^2 /8 hours. Al percents are volume percents based on the total volume of the system unless otherwise indicated.
25 mg of the NSAID, Indomethacin, Diclofenac sodium or Ibuprofen in 1 ml of various systems were used. […]

concentration at 1 h ([1]; in vivo): 75 ng/mL
concentration at 2 h ([1]; in vivo): 146 ng/mL
concentration at 3 h ([1]; in vivo): 178 ng/mL
concentration at 5 h ([1]; in vivo): 121 ng/mL
concentration at 7 h ([1]; in vivo): 93 ng/mL
Structure (SMILES): CCN(CC)CCNC(=O)c1cc(Cl)c(N)cc1OC [metoclopramide.HCl]

Relative Flux ([2]; Ibuprofen, 25% C12 OH in N-methyl piperidone (reference)): 1.0
Relative Flux ([2]; Ibuprofen, 25% C12 OH in a 2:1 volume mixture of N-methyl piperidone/1,2-propanediol, relative to 25% C12 OH in N-methyl piperidone): 0.48
Structure (SMILES): CC(C)Cc1ccc(C(C)C(=O)O)cc1 (centres unmarked) [Ibuprofen]

concentration at 1 h ([1]; plasma, 200 mg, 1 hour after application, procedure of Example 7 (25% C12 OH in 2:1 MP/1,2-propanediol, 49 cm^2, upper back, occluded), read-out: Propranolol plasma level): 30 ng/mL
concentration at 3 h ([1]; plasma, 200 mg, 3 hours after application, procedure of Example 7 (25% C12 OH in 2:1 MP/1,2-propanediol, 49 cm^2, upper back, occluded), read-out: Propranolol plasma level): 115 ng/mL
concentration at 5 h ([1]; plasma, 200 mg, 5 hours after application, procedure of Example 7 (25% C12 OH in 2:1 MP/1,2-propanediol, 49 cm^2, upper back, occluded), read-out: Propranolol plasma level): 130 ng/mL
concentration at 7 h ([1]; plasma, 200 mg, 7 hours after application, procedure of Example 7 (25% C12 OH in 2:1 MP/1,2-propanediol, 49 cm^2, upper back, occluded), read-out: Propranolol plasma level): 90 ng/mL
Structure (SMILES): CC(C)NCC(O)COc1cccc2ccccc12 (centres unmarked) [propranolol]

Relative Flux ([2]; Indomethacin, 25% C12 OH in MP (reference)): 1.0
Relative Flux ([2]; Indomethacin, 25% C12 OH in a 2:1 volume mixture of MP/1,2-propanediol, relative to 25% C12 OH in MP): 0.73
concentration at 1 h ([1]; in vivo, 1 hour after application, 200 mg in 1 ml 25% C12 OH in 2:1 MP/1,2-propanediol, 49 cm^2 cloth, upper back, occluded, read-out: Indomethacin plasma level): 619 ng/mL
concentration at 3 h ([1]; in vivo, 3 hours after application, 200 mg in 1 ml 25% C12 OH in 2:1 MP/1,2-propanediol, 49 cm^2 cloth, upper back, occluded, read-out: Indomethacin plasma level): 452 ng/mL
concentration at 5 h ([1]; in vivo, 5 hours after application, 200 mg in 1 ml 25% C12 OH in 2:1 MP/1,2-propanediol, 49 cm^2 cloth, upper back, occluded, read-out: Indomethacin plasma level): 388 ng/mL
concentration at 7 h ([1]; in vivo, 7 hours after application, 200 mg in 1 ml 25% C12 OH in 2:1 MP/1,2-propanediol, 49 cm^2 cloth, upper back, occluded, read-out: Indomethacin plasma level): 429 ng/mL
Structure (SMILES): COc1ccc2c(c1)c(CC(=O)O)c(C)n2C(=O)c1ccc(Cl)cc1 [Indomethacin]
